PubChem BioAssay AID248 (DTP/NCI, 2004)
Toxic doses and inconclusive results are not listed.

System: L1210 leukemia ip in BDF1 mice, survival T/C
Experiment: NCI In Vivo Anticancer Drug Screen. Data for tumor model L1210 Leukemia (intraperitoneal) in B6D2F1 (BDF1) mice
Conditions: higher = longer survival
Outline: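 Read-out is survival time, reported as the treated-group measurement over the vehicle-control measurement.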

[1] = endpoint: mean survival time, dose: 25.0 mg/kg/injection, schedule: Q01DX009 (ip), vehicle: Klucel (hydroxypropylcellulose) (HPC)
[2] = endpoint: mean survival time, dose: 50.0 mg/kg/injection, schedule: Q01DX009 (ip), vehicle: Klucel (hydroxypropylcellulose) (HPC)
[3] = endpoint: mean survival time, dose: 100.0 mg/kg/injection, schedule: Q01DX009 (ip), vehicle: Klucel (hydroxypropylcellulose) (HPC)
[4] = endpoint: mean survival time, dose: 400.0 mg/kg/injection, schedule: Q01DX001 (ip), vehicle: carboxymethylcellulose (CMC)
[5] = endpoint: mean survival time, dose: 200.0 mg/kg/injection, schedule: Q01DX009 (ip), vehicle: Klucel (hydroxypropylcellulose) (HPC)
[6] = endpoint: mean survival time, dose: 400.0 mg/kg/injection, schedule: Q01DX009 (ip), vehicle: Klucel (hydroxypropylcellulose) (HPC)
[7] = endpoint: mean survival time, dose: 100.0 mg/kg/injection, schedule: Q01DX001 (ip), vehicle: acetone
[8] = endpoint: mean survival time, dose: 200.0 mg/kg/injection, schedule: Q01DX001 (ip), vehicle: acetone

## O=NN(CCCl)C(=O)NCC1CCC(CNC(=O)N(CCCl)N=O)CC1 (stereo not drawn)
endpoint: mean survival time, dose: 6.2 mg/kg/injection, schedule: Q01DX009 (ip), vehicle: carboxymethylcellulose (CMC)
  T/C: 113 % of control
endpoint: mean survival time, dose: 12.5 mg/kg/injection, schedule: Q01DX009 (ip), vehicle: carboxymethylcellulose (CMC)
  T/C: 111 % of control
[1]
  T/C: 101 % of control
endpoint: mean survival time, dose: 25.0 mg/kg/injection, schedule: Q01DX009 (ip), vehicle: carboxymethylcellulose (CMC)
  T/C: 122 % of control
[2]
  T/C: 98 % of control
endpoint: mean survival time, dose: 53.0 mg/kg/injection, schedule: Q01DX001 (ip), vehicle: carboxymethylcellulose (CMC)
  T/C: 117 % of control
endpoint: mean survival time, dose: 80.0 mg/kg/injection, schedule: Q01DX001 (ip), vehicle: carboxymethylcellulose (CMC)
  T/C: 117 % of control
[3]
  T/C: 109 % of control
endpoint: mean survival time, dose: 177.0 mg/kg/injection, schedule: Q01DX001 (ip), vehicle: carboxymethylcellulose (CMC)
  T/C: 150 % of control
endpoint: mean survival time, dose: 177.0 mg/kg/injection, schedule: Q01DX009 (ip), vehicle: carboxymethylcellulose (CMC)
  T/C: 278 % of control
endpoint: mean survival time, dose: 266.0 mg/kg/injection, schedule: Q01DX001 (ip), vehicle: carboxymethylcellulose (CMC)
  T/C: 225 % of control
endpoint: mean survival time, dose: 266.0 mg/kg/injection, schedule: Q01DX009 (ip), vehicle: carboxymethylcellulose (CMC)
  T/C: 188 % of control
[4]
  T/C: 275 % of control
endpoint: mean survival time, dose: 400.0 mg/kg/injection, schedule: Q01DX009 (ip), vehicle: carboxymethylcellulose (CMC)
  T/C: 103 % of control
endpoint: mean survival time, dose: 600.0 mg/kg/injection, schedule: Q01DX001 (ip), vehicle: carboxymethylcellulose (CMC)
  T/C: 250 % of control

## CC(C)C1=CC23CCC4C(C)(C(=O)Cl)CCCC4(C)C2CC1C1(Br)C(=O)OC(=O)C31Br (stereo not drawn)
endpoint: mean survival time, dose: 75.0 mg/kg/injection, schedule: Q01DX001 (ip), vehicle: other
  T/C: 93 % of control
endpoint: mean survival time, dose: 150.0 mg/kg/injection, schedule: Q01DX001 (ip), vehicle: other
  T/C: 88 % of control
endpoint: mean survival time, dose: 300.0 mg/kg/injection, schedule: Q01DX001 (ip), vehicle: other
  T/C: 91 % of control

## CC1(C)N=C(N)N=C(N)N1c1ccc(OCCNS(=O)(=O)c2cccc(S(=O)(=O)F)c2)c(Cl)c1
endpoint: median survival time, dose: 100.0 mg/kg/injection, schedule: Q01DX001 (ip), vehicle: Klucel (hydroxypropylcellulose) (HPC)
  T/C: 105 % of control
endpoint: median survival time, dose: 200.0 mg/kg/injection, schedule: Q01DX001 (ip), vehicle: Klucel (hydroxypropylcellulose) (HPC)
  T/C: 100 % of control
endpoint: median survival time, dose: 400.0 mg/kg/injection, schedule: Q01DX001 (ip), vehicle: Klucel (hydroxypropylcellulose) (HPC)
  T/C: 105 % of control

## O=C(C[P+](c1ccccc1)(c1ccccc1)c1ccccc1)c1ccccc1
endpoint: mean survival time, dose: 75.0 mg/kg/injection, schedule: Q01DX001 (ip), vehicle: carboxymethylcellulose (CMC)
  T/C: 92 % of control
endpoint: mean survival time, dose: 100.0 mg/kg/injection, schedule: Q01DX001 (ip), vehicle: Klucel (hydroxypropylcellulose) (HPC)
  T/C: 97 % of control
endpoint: mean survival time, dose: 150.0 mg/kg/injection, schedule: Q01DX001 (ip), vehicle: carboxymethylcellulose (CMC)
  T/C: 97 % of control
endpoint: mean survival time, dose: 300.0 mg/kg/injection, schedule: Q01DX001 (ip), vehicle: carboxymethylcellulose (CMC)
  T/C: 92 % of control

## CCOc1ccccc1NC(=O)Nc1cccc(Cl)c1
endpoint: mean survival time, dose: 100.0 mg/kg/injection, schedule: Q04DX003 (ip), vehicle: Klucel (hydroxypropylcellulose) (HPC)
  T/C: 100 % of control
[5]
  T/C: 94 % of control
endpoint: mean survival time, dose: 200.0 mg/kg/injection, schedule: Q04DX003 (ip), vehicle: Klucel (hydroxypropylcellulose) (HPC)
  T/C: 100 % of control
[6]
  T/C: 97 % of control
endpoint: mean survival time, dose: 400.0 mg/kg/injection, schedule: Q04DX003 (ip), vehicle: Klucel (hydroxypropylcellulose) (HPC)
  T/C: 104 % of control

## OC1=NN(Cc2ccccc2)NO1
[1]
  T/C: 95 % of control
[2]
  T/C: 95 % of control
[3]
  T/C: 92 % of control
endpoint: mean survival time, dose: 100.0 mg/kg/injection, schedule: Q04DX002 (ip), vehicle: Klucel (hydroxypropylcellulose) (HPC)
  T/C: 104 % of control
endpoint: mean survival time, dose: 200.0 mg/kg/injection, schedule: Q04DX002 (ip), vehicle: Klucel (hydroxypropylcellulose) (HPC)
  T/C: 104 % of control
endpoint: mean survival time, dose: 400.0 mg/kg/injection, schedule: Q04DX002 (ip), vehicle: Klucel (hydroxypropylcellulose) (HPC)
  T/C: 93 % of control

## COc1cc(C)c2ccc3ccccc3c2n1
endpoint: mean survival time, dose: 100.0 mg/kg/injection, schedule: Q01DX001 (ip), vehicle: other
  T/C: 93 % of control
endpoint: mean survival time, dose: 200.0 mg/kg/injection, schedule: Q01DX001 (ip), vehicle: other
  T/C: 95 % of control
endpoint: mean survival time, dose: 400.0 mg/kg/injection, schedule: Q01DX001 (ip), vehicle: other
  T/C: 97 % of control

## CCC(C)C(NCc1ccccc1)C(=O)O (stereo not drawn)
[7]
  T/C: 108 % of control
endpoint: mean survival time, dose: 100.0 mg/kg/injection, schedule: Q04DX003 (ip), vehicle: saline
  T/C: 102 % of control
[8]
  T/C: 97 % of control
endpoint: mean survival time, dose: 200.0 mg/kg/injection, schedule: Q04DX003 (ip), vehicle: saline
  T/C: 93 % of control
endpoint: mean survival time, dose: 400.0 mg/kg/injection, schedule: Q01DX001 (ip), vehicle: acetone
  T/C: 90 % of control
endpoint: mean survival time, dose: 400.0 mg/kg/injection, schedule: Q04DX003 (ip), vehicle: saline
  T/C: 96 % of control

## Cc1ccccc1-c1nc2c(N)nc(N)nc2nc1N
endpoint: mean survival time, dose: 25.25 mg/kg/injection, schedule: Q01DX Z (ip), vehicle: carboxymethylcellulose (CMC)
  T/C: 104 % of control
endpoint: mean survival time, dose: 50.0 mg/kg/injection, schedule: Q01DX001 (ip), vehicle: carboxymethylcellulose (CMC)
  T/C: 101 % of control
endpoint: mean survival time, dose: 50.5 mg/kg/injection, schedule: Q01DX Z (ip), vehicle: carboxymethylcellulose (CMC)
  T/C: 106 % of control
endpoint: mean survival time, dose: 79.0 mg/kg/injection, schedule: Q04DX002 (ip), vehicle: Klucel (hydroxypropylcellulose) (HPC)
  T/C: 111 % of control
endpoint: mean survival time, dose: 100.0 mg/kg/injection, schedule: Q01DX001 (ip), vehicle: carboxymethylcellulose (CMC)
  T/C: 96 % of control
endpoint: mean survival time, dose: 118.0 mg/kg/injection, schedule: Q04DX002 (ip), vehicle: Klucel (hydroxypropylcellulose) (HPC)
  T/C: 97 % of control
endpoint: mean survival time, dose: 180.0 mg/kg/injection, schedule: Q04DX002 (ip), vehicle: Klucel (hydroxypropylcellulose) (HPC)
  T/C: 100 % of control
endpoint: mean survival time, dose: 200.0 mg/kg/injection, schedule: Q01DX001 (ip), vehicle: carboxymethylcellulose (CMC)
  T/C: 104 % of control
endpoint: mean survival time, dose: 270.0 mg/kg/injection, schedule: Q04DX002 (ip), vehicle: Klucel (hydroxypropylcellulose) (HPC)
  T/C: 111 % of control
[4]
  T/C: 98 % of control
endpoint: mean survival time, dose: 500.0 mg/kg/injection, schedule: Q01DX Z (ip), vehicle: methylcellulose (MC)
  T/C: 120 % of control
endpoint: mean survival time, dose: 750.0 mg/kg/injection, schedule: Q01DX Z (ip), vehicle: methylcellulose (MC)
  T/C: 114 % of control
endpoint: mean survival time, dose: 1000.0 mg/kg/injection, schedule: Q01DX Z (ip), vehicle: methylcellulose (MC)
  T/C: 101 % of control

## O=C(O)c1ccc(OCCCCOc2ccccc2)c(Cl)c1
[3]
  T/C: 98 % of control
[5]
  T/C: 98 % of control
[6]
  T/C: 95 % of control

## C1=NN=C2C=C3CCc4ccccc4C3CC12 (stereo not drawn)
[7]
  T/C: 93 % of control
[8]
  T/C: 96 % of control

## CC(=O)n1c2c(n(C(C)=O)c1=O)CCCC2
endpoint: mean survival time, dose: 100.0 mg/kg/injection, schedule: Q01DX001 (ip), vehicle: saline with Tween-80
  T/C: 102 % of control
endpoint: mean survival time, dose: 200.0 mg/kg/injection, schedule: Q01DX001 (ip), vehicle: saline with Tween-80
  T/C: 98 % of control
endpoint: mean survival time, dose: 400.0 mg/kg/injection, schedule: Q01DX001 (ip), vehicle: saline with Tween-80
  T/C: 102 % of control

## CC(Br)C1=CC(c2ccccc2)(c2ccccc2)c2ccccc21 (stereo not drawn)
endpoint: mean survival time, dose: 100.0 mg/kg/injection, schedule: Q04DX003 (ip), vehicle: saline with Tween-80
  T/C: 90 % of control
endpoint: mean survival time, dose: 400.0 mg/kg/injection, schedule: Q04DX003 (ip), vehicle: saline with Tween-80
  T/C: 90 % of control
